In US8748421B2, “Triazine compounds as P13 kinase and MTOR inhibitors” (Wyeth LLC, priority 2009, dated 2014):

Columns and labels:
[1] = system: human tumor xenograft models; conditions: chronic oral administration, 400 mg/kg; A549, PC-3, WiDr; cited from earlier work
[2] = molecular target: PI3K-alpha (Homo sapiens, UniProt P42336); experiment: PI3K-alpha fluorescence polarization assay; conditions: read-out: IC50 PI3Kα
[3] = molecular target: PI3K-gamma (Homo sapiens, UniProt P48736); experiment: PI3K-gamma fluorescence polarization assay; conditions: read-out: IC50 PI3Kγ
[4] = molecular target: human SMG-1 (hSMG-1) (Homo sapiens, UniProt Q96Q15); experiment: hSMG-1 kinase assay (DELFIA); type: biochemical
[5] = system: human prostate LNCap tumor cell line; experiment: In vitro cell culture growth assay (MTS), LNCap; conditions: 72 h, read-out: IC50 LNCap
[6] = system: human breast MDA-MB-361 tumor cell line; experiment: In vitro cell culture growth assay (MTS), MDA-MB-361; type: cell-based; conditions: 72 h, human breast MDA-MB-361 cells, three days after drug treatment
[7] = system: human prostate PC3-mm2 tumor cell line; experiment: In vitro cell culture growth assay (MTS), PC3-mm2; type: cell-based; conditions: PC3MM2, 72 h, human prostate PC3-mm2 cells, three days after drug treatment
[8] = system: acute lymphoblastic leukemia xenograft; conditions: NOS/SCID mouse; cited from earlier work

Chain of PI3K-alpha (P42336 whole entry, species assumed): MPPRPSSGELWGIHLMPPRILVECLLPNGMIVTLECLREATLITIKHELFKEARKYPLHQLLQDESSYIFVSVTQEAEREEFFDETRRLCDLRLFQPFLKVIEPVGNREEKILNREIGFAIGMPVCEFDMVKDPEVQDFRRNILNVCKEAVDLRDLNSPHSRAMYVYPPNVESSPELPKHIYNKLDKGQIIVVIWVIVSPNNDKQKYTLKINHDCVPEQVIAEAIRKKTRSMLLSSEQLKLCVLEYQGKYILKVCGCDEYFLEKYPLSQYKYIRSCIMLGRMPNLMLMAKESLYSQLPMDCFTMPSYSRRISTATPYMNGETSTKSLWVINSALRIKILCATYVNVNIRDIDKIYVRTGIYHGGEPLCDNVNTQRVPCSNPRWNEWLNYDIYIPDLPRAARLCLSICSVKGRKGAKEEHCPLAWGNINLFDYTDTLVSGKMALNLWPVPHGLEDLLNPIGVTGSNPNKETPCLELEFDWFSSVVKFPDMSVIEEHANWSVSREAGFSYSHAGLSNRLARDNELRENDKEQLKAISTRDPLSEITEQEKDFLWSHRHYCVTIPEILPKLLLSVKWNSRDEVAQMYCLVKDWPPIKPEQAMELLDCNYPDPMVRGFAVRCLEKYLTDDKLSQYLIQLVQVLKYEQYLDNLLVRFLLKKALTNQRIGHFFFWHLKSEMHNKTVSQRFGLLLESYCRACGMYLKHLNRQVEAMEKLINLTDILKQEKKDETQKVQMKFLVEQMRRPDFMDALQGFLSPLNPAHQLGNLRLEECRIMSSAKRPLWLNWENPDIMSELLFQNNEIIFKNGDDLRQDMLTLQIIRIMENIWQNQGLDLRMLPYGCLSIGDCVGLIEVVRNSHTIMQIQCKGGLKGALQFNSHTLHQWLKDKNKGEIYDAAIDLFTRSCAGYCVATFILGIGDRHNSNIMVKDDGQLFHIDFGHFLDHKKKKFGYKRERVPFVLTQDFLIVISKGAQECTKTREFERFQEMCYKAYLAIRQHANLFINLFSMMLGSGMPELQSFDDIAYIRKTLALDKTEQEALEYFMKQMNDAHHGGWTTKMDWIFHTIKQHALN
Chain of PI3K-alpha (P27986 whole entry partner, species assumed): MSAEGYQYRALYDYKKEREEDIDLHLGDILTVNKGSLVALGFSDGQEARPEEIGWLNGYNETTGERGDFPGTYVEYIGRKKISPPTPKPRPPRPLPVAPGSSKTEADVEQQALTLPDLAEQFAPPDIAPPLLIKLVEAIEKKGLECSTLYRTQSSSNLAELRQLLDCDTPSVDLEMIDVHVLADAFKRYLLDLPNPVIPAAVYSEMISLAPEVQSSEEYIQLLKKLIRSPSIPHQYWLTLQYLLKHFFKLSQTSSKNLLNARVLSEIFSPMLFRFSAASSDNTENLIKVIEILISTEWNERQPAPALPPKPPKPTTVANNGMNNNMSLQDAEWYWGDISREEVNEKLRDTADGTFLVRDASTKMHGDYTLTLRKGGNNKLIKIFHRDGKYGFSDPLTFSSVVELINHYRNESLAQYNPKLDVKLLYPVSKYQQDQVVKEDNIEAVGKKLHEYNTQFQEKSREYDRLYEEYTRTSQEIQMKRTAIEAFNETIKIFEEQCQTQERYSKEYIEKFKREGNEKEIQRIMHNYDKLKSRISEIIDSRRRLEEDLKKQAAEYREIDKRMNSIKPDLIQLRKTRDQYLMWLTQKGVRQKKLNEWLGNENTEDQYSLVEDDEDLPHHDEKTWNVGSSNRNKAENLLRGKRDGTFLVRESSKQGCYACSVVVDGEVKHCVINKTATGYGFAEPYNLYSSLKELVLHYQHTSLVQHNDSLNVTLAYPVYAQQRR
Chain of PI3K-gamma (P48736 whole entry, species assumed): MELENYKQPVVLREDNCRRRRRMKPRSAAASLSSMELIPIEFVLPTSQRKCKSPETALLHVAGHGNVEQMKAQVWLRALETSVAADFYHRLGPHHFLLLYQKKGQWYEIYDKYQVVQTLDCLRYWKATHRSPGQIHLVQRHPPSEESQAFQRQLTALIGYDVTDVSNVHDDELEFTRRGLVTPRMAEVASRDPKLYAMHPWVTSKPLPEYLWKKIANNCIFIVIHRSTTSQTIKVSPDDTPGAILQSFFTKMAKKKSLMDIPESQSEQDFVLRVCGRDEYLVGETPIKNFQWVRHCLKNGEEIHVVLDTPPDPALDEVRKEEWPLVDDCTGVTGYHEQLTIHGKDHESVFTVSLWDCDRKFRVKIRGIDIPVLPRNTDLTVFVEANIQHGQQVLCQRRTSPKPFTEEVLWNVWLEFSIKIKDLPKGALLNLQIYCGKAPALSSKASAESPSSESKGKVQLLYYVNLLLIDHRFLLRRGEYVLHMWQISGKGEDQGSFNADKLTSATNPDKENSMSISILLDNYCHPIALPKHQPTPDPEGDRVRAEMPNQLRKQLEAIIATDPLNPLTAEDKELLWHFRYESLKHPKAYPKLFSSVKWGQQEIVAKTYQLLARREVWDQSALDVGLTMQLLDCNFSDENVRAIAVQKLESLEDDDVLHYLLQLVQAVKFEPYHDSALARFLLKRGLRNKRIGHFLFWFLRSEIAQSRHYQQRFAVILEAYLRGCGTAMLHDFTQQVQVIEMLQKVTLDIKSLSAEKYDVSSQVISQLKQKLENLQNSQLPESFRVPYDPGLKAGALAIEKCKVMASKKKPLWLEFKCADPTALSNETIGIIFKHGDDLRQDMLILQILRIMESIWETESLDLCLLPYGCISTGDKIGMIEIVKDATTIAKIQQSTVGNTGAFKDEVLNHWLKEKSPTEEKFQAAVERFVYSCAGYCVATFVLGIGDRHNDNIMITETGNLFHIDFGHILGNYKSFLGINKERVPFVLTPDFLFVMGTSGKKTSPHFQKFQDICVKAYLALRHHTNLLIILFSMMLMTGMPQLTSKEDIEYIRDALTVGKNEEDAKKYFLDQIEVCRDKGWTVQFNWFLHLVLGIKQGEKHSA

IC50 [2] [nM] | IC50 [3] [nM] | SMILES | other results
5 | 134 | CC(C)N1CCCN(c2nc(-c3ccc(NC(=O)Nc4ccc(C(=O)N(C)CCN(C)C)cc4)cc3)nc(N3CCOCC3)n2)CC1 [Example 858, N-[2-(dimethylamino)ethyl]-N-methyl-4-{[(4-{4-(morpholin-4-yl)-6-[4-(propan-2-yl)-1,4-diazepan-1-yl]-1,3,5-triazin-2-yl}phenyl)carbamoyl]amino}benzamide] | 
10.5 | 87.5 | CC(C)N1CCCN(c2nc(-c3ccc(NC(=O)Nc4ccc(C(=O)N5CC[C@@H](N(C)C)C5)cc4)cc3)nc(N3CCOCC3)n2)CC1 [Example 847, 1-(4-{[(3R)-3-(dimethylamino)pyrrolidin-1-yl]carbonyl}phenyl)-3-(4-{4-(morpholin-4-yl)-6-[4-(propan-2-yl)-1,4-diazepan-1-yl]-1,3,5-triazin-2-yl}phenyl)urea] | 
8.84 | 164 | CC(C)N1CCCN(c2nc(-c3ccc(NC(=O)Nc4ccc(C(=O)N(C)CCN(C)C)cc4)cc3)nc(N3CCOC[C@@H]3C)n2)CC1 [Example 854, N-[2-(dimethylamino)ethyl]-N-methyl-4-{[(4-{4-[(3S)-3-methylmorpholin-4-yl]-6-[4-(propan-2-yl)-1,4-diazepan-1-yl]-1,3,5-triazin-2-yl}phenyl)carbamoyl]amino}benzamide] | 
23.5 | 154 | CC(C)N1CCCN(C(=O)c2ccc(NC(=O)Nc3ccc(-c4nc(N5CCOCC5)nc(N5CCCN(C(C)C)CC5)n4)cc3)cc2)CC1 [Example 862, 1-(4-{4-(morpholin-4-yl)-6-[4-(propan-2-yl)-1,4-diazepan-1-yl]-1,3,5-triazin-2-yl}phenyl)-3-(4-{[4-(propan-2-yl)-1,4-diazepan-1-yl]carbonyl}phenyl)urea] | 
2.45 | 12 | CN1CCN(C(=O)c2ccc(NC(=O)Nc3ccc(-c4nc(C5CCOCC5)nc(N5CCOCC5)n4)cc3)cc2)CC1(C)C [Example 865, 1-{4-[4-(morpholin-4-yl)-6-(tetrahydro-2H-pyran-4-yl)-1,3,5-triazin-2-yl]phenyl}-3-{4-[(3,3,4-trimethylpiperazin-1-yl)carbonyl]phenyl}urea] | 
4.95 | 24.5 | CC(C)N1CCCN(C(=O)c2ccc(NC(=O)Nc3ccc(-c4nc(N5CCOC[C@@H]5C)nc(N5CCOC[C@@H]5C)n4)cc3)cc2)CC1 [Example 838, 1-(4-{4,6-bis[(3S)-3-methylmorpholin-4-yl]-1,3,5-triazin-2-yl}phenyl)-3-(4-{[4-(1-methylethyl)-1,4-diazepan-1-yl]carbonyl}phenyl)urea] | 
0.4 | 5.55 | CC(C)N1CCN(C(=O)c2ccc(NC(=O)Nc3ccc(-c4nc(N5CCOCC5)nc(N5CCOCC5)n4)cc3)cc2)C[C@H]1C [Example 852, 1-{4-[4,6-di(morpholin-4-yl)-1,3,5-triazin-2-yl]phenyl}-3-(4-{[(3R)-3-methyl-4-(propan-2-yl)piperazin-1-yl]carbonyl}phenyl)urea] | 
2.58 | 8.25 | CC(C)N1CCN(C(=O)c2ccc(NC(=O)Nc3ccc(-c4nc(C5CCOCC5)nc(N5CCOCC5)n4)cc3)cc2)CC1 [Example 833, 1-(4-{[4-(1-methylethyl)piperazin-1-yl]carbonyl}phenyl)-3-{4-[4-morpholin-4-yl-6-(tetrahydro-2H-pyran-4-yl)-1,3,5-triazin-2-yl]phenyl}urea] | 
0.65 | 4.5 | CN(C)[C@@H]1CCN(C(=O)c2ccc(NC(=O)Nc3ccc(-c4nc(C5CCOCC5)nc(N5CCOCC5)n4)cc3)cc2)C1 [Example 868, 1-(4-{[(3R)-3-(dimethylamino)pyrrolidin-1-yl]carbonyl}phenyl)-3-{4-[4-morpholin-4-yl-6-(tetrahydro-2H-pyran-4-yl)-1,3,5-triazin-2-yl]phenyl}urea] | 
4 | 56 | CC(C)N1CCCN(c2nc(-c3ccc(NC(=O)Nc4ccc(C(=O)N5CCCNCC5)cc4)cc3)nc(N3CCOCC3)n2)CC1 [Example 861, 1-[4-(1,4-diazepan-1-ylcarbonyl)phenyl]-3-(4-{4-(morpholin-4-yl)-6-[4-(propan-2-yl)-1,4-diazepan-1-yl]-1,3,5-triazin-2-yl}phenyl)urea] | 
0.3 | 3.17 | C[C@@H]1CN(C(=O)c2ccc(NC(=O)Nc3ccc(-c4nc(N5CCOCC5)nc(N5CCOCC5)n4)cc3)cc2)CCN1 [Example 849, 1-{4-[4,6-di(morpholin-4-yl)-1,3,5-triazin-2-yl]phenyl}-3-(4-{[(3R)-3-methylpiperazin-1-yl]carbonyl}phenyl)urea] | 

The remaining lines, values behind:

SMILES | IC50 [2] [nM] | IC50 [3] [nM] | other results
FC(F)c1nc2ccccc2n1-c1nc(N2CCOCC2)nc(N2CCOCC2)n1 [ZSTK474, 2-(2-difluoromethylbenzoimidazol-1-yl)-4,6-dimorpholino-1,3,5-triazine] |  |  | tumor growth inhibition in mouse human xenograft cancer models [1]: completely inhibited growth
C[C@H]1CN(C(=O)c2ccc(NC(=O)Nc3ccc(-c4nc(C5CCOCC5)nc(N5CCOCC5)n4)cc3)cc2)CCN1 [Example 867, 1-(4-{[(3S)-3-methylpiperazin-1-yl]carbonyl}phenyl)-3-{4-[4-(morpholin-4-yl)-6-(tetrahydro-2H-pyran-4-yl)-1,3,5-triazin-2-yl]phenyl}urea] | 0.4 | 7 | 
CC(C)N1CCCN(c2nc(-c3ccc(NC(=O)Nc4ccc(C(=O)NCCCN(C)C)cc4)cc3)nc(N3CCOCC3)n2)CC1 [Example 857, N-[3-(dimethylamino)propyl]-4-{[(4-{4-(morpholin-4-yl)-6-[4-(propan-2-yl)-1,4-diazepan-1-yl]-1,3,5-triazin-2-yl}phenyl)carbamoyl]amino}benzamide] | 10 | 146 | 
CNC(=O)Nc1ccc(-c2nc(-c3ccc(NC(=O)Nc4ccc(C(N)=O)cc4)cc3)nc(N3CCOCC3)n2)cc1 [Example 462, 4-({[4-(4-{4-[(methylcarbamoyl)amino]phenyl}-6-morpholin-4-yl-1,3,5-triazin-2-yl)phenyl]carbamoyl}amino)benzamide] |  |  | IC50 [4]: 1 nM
CC(C)N1CCCN(c2nc(-c3ccc(NC(=O)Nc4ccc(C(=O)N5CCN(C)CC5)cc4)cc3)nc(N3CCOC[C@@H]3C)n2)CC1 [Example 855, 1-(4-{4-[(3S)-3-methylmorpholin-4-yl]-6-[4-(propan-2-yl)-1,4-diazepan-1-yl]-1,3,5-triazin-2-yl}phenyl)-3-{4-[(4-methylpiperazin-1-yl)carbonyl]phenyl}urea] | 54 | 864 | 
CC1CNCCN1C(=O)c1ccc(NC(=O)Nc2ccc(-c3nc(N4CCOCC4)nc(N4CCOCC4)n3)cc2)cc1 (centres unmarked) [Example 845, 1-{4-[4,6-di(morpholin-4-yl)-1,3,5-triazin-2-yl]phenyl}-3-{4-[(2-methylpiperazin-1-yl)carbonyl]phenyl}urea] | 0.25 | 2.75 | 
CNC(=O)Nc1ccc(-c2nc(-c3ccc(NC(=O)Nc4cccc(C(N)=O)c4)cc3)nc(N3CCOCC3)n2)cc1 [Example 466, 3-({[4-(4-{4-[(methylcarbamoyl)amino]phenyl}-6-morpholin-4-yl-1,3,5-triazin-2-yl)phenyl]carbamoyl}amino)benzamide] |  |  | IC50 [5]: 420 nM
O=C(Nc1ccncc1)Nc1ccc(-c2nc(OC3CNC3)nc(N3CCOCC3)n2)cc1 [Example 835, 1-{4-[4-(azetidin-3-yloxy)-6-morpholin-4-yl-1,3,5-triazin-2-yl]phenyl}-3-pyridin-4-ylurea] | 4.15 | 18.5 | 
CN(C)CCNC(=O)c1ccc(NC(=O)Nc2ccc(-c3nc(N4CCCCC4)nc(N4CCOCC4)n3)cc2)cc1 [Example 601, N-[2-(dimethylamino)ethyl]-4-({[4-(4-morpholin-4-yl-6-piperidin-1-yl-1,3,5-triazin-2-yl)phenyl]carbamoyl}amino)benzamide] |  |  | IC50 [6]: 22 nM; IC50 [7]: 155 nM
CO[C@H]1C[C@@H]2CC[C@@H](C)[C@@](O)(O2)C(=O)C(=O)N2CCCC[C@H]2C(=O)O[C@H]([C@H](C)C[C@@H]2CC[C@@H](OC(=O)C(C)(CO)CO)[C@H](OC)C2)CC(=O)[C@H](C)/C=C(\C)[C@@H](O)[C@@H](OC)C(=O)[C@H](C)C[C@H](C)/C=C/C=C/C=C/1C [Torisel] |  |  | activity in xenograft mouse model of acute lymphoblastic leukemia [8]: active
CN1CCN(C(=O)c2ccc(NC(=O)Nc3ccc(-c4nc(N5CCOCC5)nc(N5CCOCC5)n4)cc3)cc2)CC1(C)C [Example 848, 1-{4-[4,6-di(morpholin-4-yl)-1,3,5-triazin-2-yl]phenyl}-3-{4-[(3,3,4-trimethylpiperazin-1-yl)carbonyl]phenyl}urea] | 1.05 | 6 | 
CC(C)N1CCCN(c2nc(-c3ccc(NC(=O)Nc4ccc(C(=O)N5CC[C@@H](N(C)C)C5)cc4)cc3)nc(N3CCOCC3)n2)CC1 [Example 844, 1-(4-{[(3R)-3-(dimethylamino)pyrrolidin-1-yl]carbonyl}phenyl)-3-(4-{4-(morpholin-4-yl)-6-[4-(propan-2-yl)-1,4-diazepan-1-yl]-1,3,5-triazin-2-yl}phenyl)urea] | 21 | 238 | 
CC(C)NC(=O)N1CC(Oc2nc(-c3ccc(NC(=O)Nc4ccncc4)cc3)nc(N3CCOCC3)n2)C1 [Example 836, N-(1-methylethyl)-3-[(4-morpholin-4-yl-6-{4-[(pyridin-4-ylcarbamoyl)amino]phenyl}-1,3,5-triazin-2-yl)oxy]azetidine-1-carboxamide] | 5 | 17.5 | 
